Reference: ChEMBL document CHEMBL5528066, “Discovery of Novel N-(Anthracen-9-ylmethyl) Benzamide Derivatives as ZNF207 Inhibitors Promising in Treating Glioma” (J Med Chem, 2024)
The source made the active and inactive calls. The rule behind the calls is not given here.

tested on: H4; experiment: Antiproliferative activity against human H4 cells assessed as inhibition of cell growth measured after 72 hrs by CCK-8 assay; format: functional, cell-based; conditions: H4, 72 h

Structure (SMILES)	IC50 [µM]
N#CC1(C(=O)NCCc2ccc(F)cc2)CC2(CO)c3ccccc3C1c1ccccc12 (racemic)	30.7
N#CC1(C(=O)Nc2ccc([N+](=O)[O-])cc2)CC2c3ccccc3C1c1ccccc12 (racemic)	25.3
N#CC1(C(=O)NCCc2ccc(F)cc2)CC2(Br)c3ccccc3C1c1ccccc12 (racemic)	15.3
Cc1ccc(CCNC(=O)C2(C#N)CC3c4ccccc4C2c2ccccc23)cc1 (racemic)	> 80
N#CC1(C(=O)NCCC2CCN(Cc3ccc(F)cc3)CC2)CC2(Br)c3ccccc3C1c1ccccc12 (racemic)	18
N#CC1(C(=O)NCCc2ccccc2F)CC2(Br)c3ccccc3C1c1ccccc12 (racemic)	> 80
N#CC1(C(=O)NCCc2ccc(F)cc2)CC2c3ccccc3C1c1ccccc12 (racemic)	35.2
N#CC1(C(=O)NCCS(=O)(=O)Nc2ccc(F)cc2)CC2(Br)c3ccccc3C1c1ccccc12 (racemic)	21.9
N#CC1(C(=O)NCCC(=O)Nc2ccc(F)cc2)CC2(Br)c3ccccc3C1c1ccccc12 (racemic)	15.8
COc1cc(NC(=O)C2(C#N)CC3c4ccccc4C2c2ccccc23)cc(OC)c1OC (racemic)	> 80
N#CC1(C(=O)NCCS(=O)(=O)Nc2ccccc2)CC2(Br)c3ccccc3C1c1ccccc12 (racemic)	22.7
O=C(NCCc1ccc(F)cc1)C1(Cl)CC2(Br)c3ccccc3C1c1ccccc12 (racemic)	> 80
N#CC1(C(=O)NC2CCN(Cc3ccccc3)CC2)CC2(Br)c3ccccc3C1c1ccccc12 (racemic)	9.84
CC12CC(C#N)(C(=O)NCCc3ccc(F)cc3)C(c3ccccc31)c1ccccc12 (racemic)	22.3
N#CC1(C(=O)Nc2ccc3c(c2)OCO3)CC2c3ccccc3C1c1ccccc12 (racemic)	20
N#CC1(C(=O)NCCS(=O)(=O)c2ccc(Cl)cc2)CC2(Br)c3ccccc3C1c1ccccc12 (racemic)	15.3
N#CC1(C(=O)NCCc2ccc(Cl)cc2)CC2(Br)c3ccccc3C1c1ccccc12 (racemic)	25
COc1ccc(NC(=O)C2(C#N)CC3c4ccccc4C2c2ccccc23)cc1 (racemic)	> 80
N#CC1(C(=O)NCCCc2ccccc2)CC2(Br)c3ccccc3C1c1ccccc12 (racemic)	49
CC(=O)C12CC(C#N)(C(=O)NCCc3ccc(F)cc3)C(c3ccccc31)c1ccccc12 (racemic)	24.7
Cn1nnc2c(C(N)=O)ncn2c1=O [TEMOZOLOMIDE]	47.9

tested on: LN-229; experiment: Antiproliferative activity against human LN-229 cells assessed as inhibition of cell growth measured after 72 hrs by CCK-8 assay; format: functional, cell-based; conditions: LN-229, 72 h

Structure (SMILES)	IC50 [µM]
N#CC1(C(=O)NCCc2ccc(F)cc2)CC2(CO)c3ccccc3C1c1ccccc12 (racemic)	15
N#CC1(C(=O)Nc2ccc([N+](=O)[O-])cc2)CC2c3ccccc3C1c1ccccc12 (racemic)	19.4
N#CC1(C(=O)NCCc2ccc(F)cc2)CC2(Br)c3ccccc3C1c1ccccc12 (racemic)	14.6
Cc1ccc(CCNC(=O)C2(C#N)CC3c4ccccc4C2c2ccccc23)cc1 (racemic)	60.8
N#CC1(C(=O)NCCC2CCN(Cc3ccc(F)cc3)CC2)CC2(Br)c3ccccc3C1c1ccccc12 (racemic)	18.7
N#CC1(C(=O)NCCc2ccccc2F)CC2(Br)c3ccccc3C1c1ccccc12 (racemic)	> 80
N#CC1(C(=O)NCCc2ccc(F)cc2)CC2c3ccccc3C1c1ccccc12 (racemic)	32.5
N#CC1(C(=O)NCCS(=O)(=O)Nc2ccc(F)cc2)CC2(Br)c3ccccc3C1c1ccccc12 (racemic)	12.7
N#CC1(C(=O)NCCC(=O)Nc2ccc(F)cc2)CC2(Br)c3ccccc3C1c1ccccc12 (racemic)	14.6
COc1cc(NC(=O)C2(C#N)CC3c4ccccc4C2c2ccccc23)cc(OC)c1OC (racemic)	> 80
N#CC1(C(=O)NCCS(=O)(=O)Nc2ccccc2)CC2(Br)c3ccccc3C1c1ccccc12 (racemic)	26.6
O=C(NCCc1ccc(F)cc1)C1(Cl)CC2(Br)c3ccccc3C1c1ccccc12 (racemic)	> 80
N#CC1(C(=O)NC2CCN(Cc3ccccc3)CC2)CC2(Br)c3ccccc3C1c1ccccc12 (racemic)	7.36
CC12CC(C#N)(C(=O)NCCc3ccc(F)cc3)C(c3ccccc31)c1ccccc12 (racemic)	28.9
N#CC1(C(=O)Nc2ccc3c(c2)OCO3)CC2c3ccccc3C1c1ccccc12 (racemic)	45.5
N#CC1(C(=O)NCCS(=O)(=O)c2ccc(Cl)cc2)CC2(Br)c3ccccc3C1c1ccccc12 (racemic)	9.14
N#CC1(C(=O)NCCc2ccc(Cl)cc2)CC2(Br)c3ccccc3C1c1ccccc12 (racemic)	7.85
COc1ccc(NC(=O)C2(C#N)CC3c4ccccc4C2c2ccccc23)cc1 (racemic)	> 80
N#CC1(C(=O)NCCCc2ccccc2)CC2(Br)c3ccccc3C1c1ccccc12 (racemic)	19.8
CC(=O)C12CC(C#N)(C(=O)NCCc3ccc(F)cc3)C(c3ccccc31)c1ccccc12 (racemic)	29.5
Cn1nnc2c(C(N)=O)ncn2c1=O [TEMOZOLOMIDE]	54.1

tested on: Hs 683; experiment: Antiproliferative activity against human Hs 683 cells assessed as inhibition of cell growth measured after 72 hrs by CCK-8 assay; format: functional, cell-based; conditions: Hs 683, 72 h

Structure (SMILES)	IC50 [µM]
N#CC1(C(=O)NCCc2ccc(F)cc2)CC2(CO)c3ccccc3C1c1ccccc12 (racemic)	21.8
N#CC1(C(=O)Nc2ccc([N+](=O)[O-])cc2)CC2c3ccccc3C1c1ccccc12 (racemic)	26.4
N#CC1(C(=O)NCCc2ccc(F)cc2)CC2(Br)c3ccccc3C1c1ccccc12 (racemic)	19.8
Cc1ccc(CCNC(=O)C2(C#N)CC3c4ccccc4C2c2ccccc23)cc1 (racemic)	39.9
N#CC1(C(=O)NCCC2CCN(Cc3ccc(F)cc3)CC2)CC2(Br)c3ccccc3C1c1ccccc12 (racemic)	21.9
N#CC1(C(=O)NCCc2ccccc2F)CC2(Br)c3ccccc3C1c1ccccc12 (racemic)	> 80
N#CC1(C(=O)NCCc2ccc(F)cc2)CC2c3ccccc3C1c1ccccc12 (racemic)	43.6
N#CC1(C(=O)NCCS(=O)(=O)Nc2ccc(F)cc2)CC2(Br)c3ccccc3C1c1ccccc12 (racemic)	17.8
N#CC1(C(=O)NCCC(=O)Nc2ccc(F)cc2)CC2(Br)c3ccccc3C1c1ccccc12 (racemic)	12.6
COc1cc(NC(=O)C2(C#N)CC3c4ccccc4C2c2ccccc23)cc(OC)c1OC (racemic)	> 80
N#CC1(C(=O)NCCS(=O)(=O)Nc2ccccc2)CC2(Br)c3ccccc3C1c1ccccc12 (racemic)	15.2
O=C(NCCc1ccc(F)cc1)C1(Cl)CC2(Br)c3ccccc3C1c1ccccc12 (racemic)	> 80
N#CC1(C(=O)NC2CCN(Cc3ccccc3)CC2)CC2(Br)c3ccccc3C1c1ccccc12 (racemic)	11.3
CC12CC(C#N)(C(=O)NCCc3ccc(F)cc3)C(c3ccccc31)c1ccccc12 (racemic)	24.6
N#CC1(C(=O)Nc2ccc3c(c2)OCO3)CC2c3ccccc3C1c1ccccc12 (racemic)	> 80
N#CC1(C(=O)NCCS(=O)(=O)c2ccc(Cl)cc2)CC2(Br)c3ccccc3C1c1ccccc12 (racemic)	10.4
N#CC1(C(=O)NCCc2ccc(Cl)cc2)CC2(Br)c3ccccc3C1c1ccccc12 (racemic)	23.1
COc1ccc(NC(=O)C2(C#N)CC3c4ccccc4C2c2ccccc23)cc1 (racemic)	> 80
N#CC1(C(=O)NCCCc2ccccc2)CC2(Br)c3ccccc3C1c1ccccc12 (racemic)	> 80
CC(=O)C12CC(C#N)(C(=O)NCCc3ccc(F)cc3)C(c3ccccc31)c1ccccc12 (racemic)	20.7
Cn1nnc2c(C(N)=O)ncn2c1=O [TEMOZOLOMIDE]	47.2

tested on: U-251; experiment: Antiproliferative activity against human U-251MG cells assessed as inhibition of cell growth measured after 72 hrs by CCK-8 assay; format: functional, cell-based; conditions: U-251, 72 h

Structure (SMILES)	IC50 [µM]
N#CC1(C(=O)NCCc2ccc(F)cc2)CC2(CO)c3ccccc3C1c1ccccc12 (racemic)	39.8
N#CC1(C(=O)Nc2ccc([N+](=O)[O-])cc2)CC2c3ccccc3C1c1ccccc12 (racemic)	13.5
N#CC1(C(=O)NCCc2ccc(F)cc2)CC2(Br)c3ccccc3C1c1ccccc12 (racemic)	21.4
Cc1ccc(CCNC(=O)C2(C#N)CC3c4ccccc4C2c2ccccc23)cc1 (racemic)	> 80
N#CC1(C(=O)NCCC2CCN(Cc3ccc(F)cc3)CC2)CC2(Br)c3ccccc3C1c1ccccc12 (racemic)	18.1
N#CC1(C(=O)NCCc2ccccc2F)CC2(Br)c3ccccc3C1c1ccccc12 (racemic)	> 80
N#CC1(C(=O)NCCc2ccc(F)cc2)CC2c3ccccc3C1c1ccccc12 (racemic)	52.3
N#CC1(C(=O)NCCS(=O)(=O)Nc2ccc(F)cc2)CC2(Br)c3ccccc3C1c1ccccc12 (racemic)	21.2
N#CC1(C(=O)NCCC(=O)Nc2ccc(F)cc2)CC2(Br)c3ccccc3C1c1ccccc12 (racemic)	49.8
COc1cc(NC(=O)C2(C#N)CC3c4ccccc4C2c2ccccc23)cc(OC)c1OC (racemic)	> 80
N#CC1(C(=O)NCCS(=O)(=O)Nc2ccccc2)CC2(Br)c3ccccc3C1c1ccccc12 (racemic)	23.2
O=C(NCCc1ccc(F)cc1)C1(Cl)CC2(Br)c3ccccc3C1c1ccccc12 (racemic)	> 80
N#CC1(C(=O)NC2CCN(Cc3ccccc3)CC2)CC2(Br)c3ccccc3C1c1ccccc12 (racemic)	25.1
CC12CC(C#N)(C(=O)NCCc3ccc(F)cc3)C(c3ccccc31)c1ccccc12 (racemic)	18.7
N#CC1(C(=O)Nc2ccc3c(c2)OCO3)CC2c3ccccc3C1c1ccccc12 (racemic)	72.6
N#CC1(C(=O)NCCS(=O)(=O)c2ccc(Cl)cc2)CC2(Br)c3ccccc3C1c1ccccc12 (racemic)	23.5
N#CC1(C(=O)NCCc2ccc(Cl)cc2)CC2(Br)c3ccccc3C1c1ccccc12 (racemic)	24
COc1ccc(NC(=O)C2(C#N)CC3c4ccccc4C2c2ccccc23)cc1 (racemic)	> 80
N#CC1(C(=O)NCCCc2ccccc2)CC2(Br)c3ccccc3C1c1ccccc12 (racemic)	45.8
CC(=O)C12CC(C#N)(C(=O)NCCc3ccc(F)cc3)C(c3ccccc31)c1ccccc12 (racemic)	18.8
Cn1nnc2c(C(N)=O)ncn2c1=O [TEMOZOLOMIDE]	43.5

target: BUB3-interacting and GLEBS motif-containing protein ZNF207 (Homo sapiens, UniProt O43670); experiment: Binding affinity to human ZNF207 assessed as dissociation constant by SPR analysis; conditions: not given
Sequence (O43670 whole entry): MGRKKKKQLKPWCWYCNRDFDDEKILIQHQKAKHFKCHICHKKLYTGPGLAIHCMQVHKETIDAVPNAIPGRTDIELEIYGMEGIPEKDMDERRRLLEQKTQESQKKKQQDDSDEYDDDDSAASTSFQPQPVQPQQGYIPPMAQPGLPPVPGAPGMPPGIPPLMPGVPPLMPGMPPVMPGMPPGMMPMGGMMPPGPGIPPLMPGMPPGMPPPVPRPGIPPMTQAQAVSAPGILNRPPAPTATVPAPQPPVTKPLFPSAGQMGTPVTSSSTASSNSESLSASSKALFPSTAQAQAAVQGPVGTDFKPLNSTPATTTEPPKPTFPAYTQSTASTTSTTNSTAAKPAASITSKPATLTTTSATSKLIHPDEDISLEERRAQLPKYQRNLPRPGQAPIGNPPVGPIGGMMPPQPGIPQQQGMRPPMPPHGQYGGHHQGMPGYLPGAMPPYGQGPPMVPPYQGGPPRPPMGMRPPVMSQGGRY

Structure (SMILES)	Kd [µM]
N#CC1(C(=O)Nc2ccc([N+](=O)[O-])cc2)CC2c3ccccc3C1c1ccccc12 (racemic)	2.4

tested on: LN-229; experiment: Antitumor activity against human LN-229 cells xenografted in BALB/c nude mouse assessed as tumor growth inhibition at 150 mg/kg, ip administered twice a week and measured every 2 days for 49 days relative to control; format: functional; conditions: LN-229, 1176 h, time 49 day, read-out: TGI

Structure (SMILES)	inhibition in vivo at 150 mg/kg [%]
Cn1nnc2c(C(N)=O)ncn2c1=O [TEMOZOLOMIDE]	69.6

tested on: LN-229; experiment: Antitumor activity against human LN-229 cells xenografted in BALB/c nude mouse assessed as reduction in proportion of Ki-67 positive cells at 150 mg/kg, ip administered twice a week and measured after 49 days by immunohistochemistry analysis; format: functional, organism-based; conditions: time 49.0 day

Structure (SMILES)	Activity
Cn1nnc2c(C(N)=O)ncn2c1=O [TEMOZOLOMIDE]	Active

tested on: LN-229-Luc; experiment: Antitumor activity against human Ln-229-Luc cells xenografted in BALB/c nude mouse assessed as increase in overall survival time at 150 mg/kg, ip administered twice a week and measured after 3 to 31 days; format: functional, organism-based; conditions: time 3-31 day

Structure (SMILES)	Activity
Cn1nnc2c(C(N)=O)ncn2c1=O [TEMOZOLOMIDE]	Active
